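Exposure lasted 48 hours, with cells grown in 96-well plates and compounds tested at five concentrations. The concentration for 50% growth inhibition is given as GI50. TGI is the concentration that stops growth completely.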 A value given as a limit tells only on which side of the number the result lay.

The values below come from PubChem BioAssay (NCI).

Test systems include DU-145 prostate; MCF7 breast; T-47D breast; MDA-N; DMS 273 small cell lung; M19-MEL melanoma; DLD-1 colon.
Common to all, as to assay: growth of human tumour cells (NCI), 48 h

As to `O=C1C=C(NCCNC(=S)Nc2ccccc2)c2nccc3c2c1nc1ccccc13`, the GI50 with DU-145 prostate was 39.8 µM; with MCF7 breast, 23.3 µM; with T-47D breast, above 100 µM. Further, the TGI in the assay with DU-145 prostate, in the assay with MCF7 breast and with T-47D breast was above 100 µM each time.

With `O=C(/C(=C\C(=O)c1cccs1)c1ccsc1)c1ccc(Br)cc1`, the TGI with DU-145 prostate, with MCF7 breast, in the assay on MDA-N and in the assay on T-47D breast was above 100 µM throughout.

On to `C[C@H](NC(=O)[C@@H]1CSSC[C@@H](NC(=O)c2nc3ccccc3cc2O)C(=O)NCC(=O)N1C)c1ccccc1`, for which the GI50 in the assay on DU-145 prostate was 5.78 µM; in the assay on MCF7 breast it was 0.835 µM; in the assay with T-47D breast, 1.11 µM. In addition, the TGI was 12.7 µM in the assay with DU-145 prostate, 2.47 µM in the assay with MCF7 breast and 3.79 µM in the assay on T-47D breast.

As for `COc1ccc(N2Cc3cnc(Nc4ccccc4)nc3N([C@@H]3CC[C@@H](O)C3)C2=O)cc1`, the results for the GI50 in the assay on DU-145 prostate, with MCF7 breast and with T-47D breast were 5.59 µM, 16.5 µM and 11.9 µM, respectively. Further, the TGI in the assay with DU-145 prostate, in the assay on MCF7 breast and with T-47D breast was above 25 µM in each case.

Turning to `O=C1c2ccc([N+](=O)[O-])cc2-c2c1c1ccccc1c(=O)n2CCCNCCCNCCCn1c2c(c3ccc([N+](=O)[O-])cc3c1=O)C(=O)c1ccccc1-2`, the GI50 in the assay on DU-145 prostate is 0.667 µM; with MCF7 breast, 0.961 µM; with T-47D breast it was 2.23 µM. For the same compound, the TGI worked out at 2.03 µM with DU-145 prostate, 4.55 µM in the assay on MCF7 breast and 7.95 µM in the assay with T-47D breast.

For `CN1CCN(c2ccc(NC(=O)c3nc4ccc5[nH]ncc5c4c4c3CCCC4)cc2C(F)(F)F)CC1`, the GI50 is 1.03 µM in the assay on DU-145 prostate, 0.964 µM with MCF7 breast and 0.835 µM with T-47D breast. For the same compound, the TGI in the assay on DU-145 prostate amounted to 2.15 µM; with MCF7 breast, 2.32 µM; in the assay with T-47D breast it was 1.74 µM.

On to `O=[N+]([O-])c1ccc(S(=O)Cc2ccccc2)c([N+](=O)[O-])c1` (stereo not given), for which the GI50 in the assay with DU-145 prostate is 11 µM; in the assay on MCF7 breast, 2.48 µM; in the assay on T-47D breast, 1.51 µM. Moreover, the TGI with DU-145 prostate came out at 23 µM; in the assay on MCF7 breast, 6.96 µM; with T-47D breast, 3.6 µM.

For the compound `CC12N=NN(c3ccc([N+](=O)[O-])cc3)C1(O)c1ccccc1C2=O` (stereo not given), the TGI in the assay with DMS 273 small cell lung and in the assay on M19-MEL melanoma was above 100 µM each time.

`C=C1SC(=Nc2c(C)cc(C)cc2C)N(C(=O)c2sc3ccccc3c2Cl)C12CCCCC2`: the GI50 with DU-145 prostate is above 100 µM; in the assay on MCF7 breast it was above 100 µM; in the assay with T-47D breast it was 9.69 µM. Moreover, the TGI in the assay on DU-145 prostate, in the assay on MCF7 breast and in the assay with T-47D breast was above 100 µM throughout.

In the case of `CO/C(=N\N=C\c1cccc(Cl)c1)c1ccncc1`, the TGI in the assay with DU-145 prostate, in the assay with MCF7 breast, in the assay with MDA-N and with T-47D breast was above 10 µM each time.

Turning to `COc1ccc(Nc2ncc(Br)c(NCCCNC(=O)C3CCC3)n2)cc1`, the GI50 with DU-145 prostate was 20.5 µM; in the assay with MCF7 breast, 16.1 µM; in the assay with T-47D breast it was 41.2 µM. The TGI in the assay with DU-145 prostate is above 100 µM; with MCF7 breast, 67.5 µM; in the assay on T-47D breast it was 98.7 µM.

As to `COc1cc2c(c(OC)c1OC)-c1ccc(N)c(=O)cc1[C@@H](NC(C)=O)CC2`, the GI50 in the assay on DU-145 prostate was 0.0291 µM; in the assay on MCF7 breast, below 0.01 µM; with T-47D breast, above 100 µM. For the same compound, the TGI in the assay with DU-145 prostate was 0.0951 µM; with MCF7 breast, above 100 µM; in the assay with T-47D breast, above 100 µM.

Regarding `Cc1c(S(C)(=O)=O)c(-c2cc(F)cc(N3CCN(c4ccc(NS(=O)(=O)c5ccc(N[C@H](CCN6CCC(C(=O)OCCCP(=O)(O)O)CC6)CSc6ccccc6)c(S(=O)(=O)C(F)(F)F)c5)cc4)CC3)c2)c(-c2ccc(Cl)cc2)n1C(C)C`, the GI50 in the assay on DU-145 prostate, with MCF7 breast and with T-47D breast was above 100 µM each time. The TGI with DU-145 prostate, in the assay on MCF7 breast and with T-47D breast was above 100 µM throughout.

On to `COc1ccc2c(c1)C(=O)c1c-2n(CCCN=[N+]=[N-])c(=O)c2cc(N(C)C)ccc12`, for which the GI50 in the assay on DU-145 prostate is above 100 µM; in the assay on MCF7 breast, above 100 µM; in the assay with T-47D breast it was 61.3 µM. Also, the TGI in the assay with DU-145 prostate, with MCF7 breast and in the assay on T-47D breast was above 100 µM throughout.

As for `CCc1n(Cc2ccc3ccccc3n2)cc[n+]1Cc1ccc2ccccc2n1`, the GI50 in the assay with DU-145 prostate was 1.93 µM; in the assay with MCF7 breast, 0.135 µM; with T-47D breast it was 0.046 µM. The results for the TGI with DU-145 prostate, in the assay with MCF7 breast and in the assay on T-47D breast were 51.7 µM, 11.6 µM and 0.794 µM, respectively.

For `CC(=O)Nc1ccc(C(=O)NN2C(=O)C(Cl)C2c2ccc([N+](=O)[O-])cc2)cc1` (stereo not given), the TGI in the assay on DMS 273 small cell lung and with M19-MEL melanoma was above 100 µM throughout.

In the case of `O=Nc1c(-c2c(O)[nH]c3ccc([N+](=O)[O-])cc23)[nH]c2ccc(O)cc12`, the results for the GI50 in the assay on DU-145 prostate, with MCF7 breast and in the assay on T-47D breast were 0.305 µM, 0.247 µM and 0.506 µM, respectively. Further, the TGI with MCF7 breast and with T-47D breast was above 100 µM each time.

For `CCn1c(C(=O)N(C2CC2)C2CC2)cc2c3c(ncn3C)c(Nc3cc(C)n(C)n3)nc21`, the GI50 in the assay with DU-145 prostate, in the assay on MCF7 breast and in the assay with T-47D breast was above 100 µM each time. Further, the TGI with DU-145 prostate, in the assay on MCF7 breast and in the assay on T-47D breast was above 100 µM each time.

For the compound `O=C1C(c2c[nH]c3ccccc23)=C(c2c[nH]c3ccccc23)C(=O)N1O`, the GI50 in the assay with DU-145 prostate, with MCF7 breast and with T-47D breast was above 25 µM in each case. Besides, the TGI in the assay with DU-145 prostate, in the assay with MCF7 breast and in the assay with T-47D breast was above 25 µM each time.

Consider `O=C1C=CC=CC2CC=C[C@@H](O)C12` (stereo not given in full), for which the TGI in the assay on DLD-1 colon was above 100 µM; in the assay on DMS 273 small cell lung it was 51.5 µM; in the assay with M19-MEL melanoma it was 34.2 µM.

As for `Cc1ccc(S(=O)(=O)NCCNC2=CC(=O)c3nc4ccccc4c4ccnc2c34)cc1`, the GI50 in the assay on DU-145 prostate was 19.1 µM; in the assay on MCF7 breast, 12.9 µM; with T-47D breast, 25.6 µM. Also, the TGI in the assay with DU-145 prostate is 51.5 µM; in the assay on MCF7 breast, 32.7 µM; with T-47D breast, 95.9 µM.
